# ChEMBL document CHEMBL3856215, “Design and synthesis of N-(5-chloro-2,4-dihydroxybenzoyl)-(R)-1,2,3,4-tetrahydroisoquinoline-3-carboxamides as novel Hsp90 inhibitors” (Eur J Med Chem, 2016)
# Active and inactive are the calls of the source. The calls are words filed in the database; no cut-off is given here.
# Columns and labels:
# [1] = Antiproliferative activity against human MDA-MB-231 cells after 72 hrs by SRB assay; assay type: functional, cell-based; conditions: MDA-MB-231, 72 h
# [2] = Antiproliferative activity against human HeLa cells after 72 hrs by SRB assay; assay type: functional, cell-based
# [3] = biological target: Heat shock protein HSP 90-alpha (Homo sapiens) (UniProt P07900); test: Induction of thermal stabilization of Hsp90alpha in human 293T cells at 10 uM preincubated for 3 hrs followed by […] at 37 to 61 degC and subsequently […] at room temperature by Western blot method; assay type: cell-based
# [4] = biological target: Heat shock protein HSP 90-alpha (Homo sapiens) (UniProt P07900); test: Induction of thermal stabilization of Hsp90alpha in human 293T cells preincubated for 3 hrs followed by […] at 55 degC and subsequently […] at room temperature by Western blot method; assay type: cell-based
# [5] = biological target: T1, Heat shock protein HSP90 (Homo sapiens) (UniProt P07900+P08238); test: Inhibition of Hsp90 in human MDA-MB-231 cells assessed as downregulation of CDK4 expression after 24 hrs by Western blot analysis; assay type: cell-based
# [6] = biological target: T1, Heat shock protein HSP90 (Homo sapiens); test: Inhibition of Hsp90 in human MDA-MB-231 cells assessed as downregulation of Her2 expression after 24 hrs by Western blot analysis; assay type: cell-based
# [7] = biological target: T1, Heat shock protein HSP90 (Homo sapiens); test: Inhibition of Hsp90 in human MDA-MB-231 cells assessed as downregulation of Cdc-2 expression after 24 hrs by Western blot analysis; assay type: cell-based
# [8] = biological target: T1, Heat shock protein HSP90 (Homo sapiens); test: Inhibition of Hsp90 in human MDA-MB-231 cells assessed as downregulation of C-raf expression after 24 hrs by Western blot analysis; assay type: cell-based
# [9] = biological target: T1, Heat shock protein HSP90 (Homo sapiens); test: Inhibition of Hsp90 in human MDA-MB-231 cells assessed as upregulation of Hsp70 expression after 24 hrs by Western blot analysis; assay type: cell-based
Structure (SMILES),IC50 [1] [µM],IC50 [2] [µM],also measured
O=C(Nc1ccccc1)[C@H]1Cc2ccccc2CN1C(=O)c1cc(Cl)c(O)cc1O,1.9,2.69,
CCNC(=O)[C@H]1Cc2ccccc2CN1C(=O)c1cc(Cl)c(O)cc1O,4.62,4.57,
CCN(CC)C(=O)[C@@H]1Cc2ccccc2CN1C(=O)c1cc(Cl)c(O)cc1O,6.2,7.8,
CNC(=O)[C@@H]1Cc2ccccc2CN1C(=O)c1cc(Cl)c(O)cc1O,9.43,> 10,
O=C(NC1CCCCC1)[C@H]1Cc2ccccc2CN1C(=O)c1cc(Cl)c(O)cc1O,2.05,3.55,
O=C([C@H]1Cc2ccccc2CN1C(=O)c1cc(Cl)c(O)cc1O)N1CCCCC1,1.64,3.45,
CNC(=O)[C@H]1Cc2ccccc2CN1C(=O)c1cc(Cl)c(O)cc1O,9.42,7.62,
O=C(NC1CCCCC1)[C@@H]1Cc2ccccc2CN1C(=O)c1cc(Cl)c(O)cc1O,7.3,5.42,
O=C(NCc1ccccc1)[C@@H]1Cc2ccccc2CN1C(=O)c1cc(Cl)c(O)cc1O,4.05,4.58,
COC1=C2C[C@@H](C)C[C@H](OC)[C@H](O)[C@@H](C)/C=C(\C)[C@H](OC(N)=O)[C@@H](OC)/C=C\C=C(/C)C(=O)NC(=CC1=O)C2=O [GELDANAMYCIN],0.03,0.06,
CCCNC(=O)[C@H]1Cc2ccccc2CN1C(=O)c1cc(Cl)c(O)cc1O,2.58,3.98,
O=C(NC1CCCC1)[C@H]1Cc2ccccc2CN1C(=O)c1cc(Cl)c(O)cc1O,3.51,5.42,
O=C(NCCc1ccccc1)[C@@H]1Cc2ccccc2CN1C(=O)c1cc(Cl)c(O)cc1O,9.05,> 10,
CC(C)NC(=O)[C@@H]1Cc2ccccc2CN1C(=O)c1cc(Cl)c(O)cc1O,5.81,7.12,
C=CCNC(=O)[C@H]1Cc2ccccc2CN1C(=O)c1cc(Cl)c(O)cc1O,2.15,3.07,
O=C(NC1CCCC1)[C@@H]1Cc2ccccc2CN1C(=O)c1cc(Cl)c(O)cc1O,> 10,> 10,
O=C([C@@H]1Cc2ccccc2CN1C(=O)c1cc(Cl)c(O)cc1O)N1CCCC1,7.88,9.76,
CCN(CC)C(=O)[C@H]1Cc2ccccc2CN1C(=O)c1cc(Cl)c(O)cc1O,2.24,4.91,
CCCNC(=O)[C@@H]1Cc2ccccc2CN1C(=O)c1cc(Cl)c(O)cc1O,5.34,7.5,
O=C(NCCc1ccccc1)[C@H]1Cc2ccccc2CN1C(=O)c1cc(Cl)c(O)cc1O,2.65,4.75,
O=C(Nc1ccccc1)[C@@H]1Cc2ccccc2CN1C(=O)c1cc(Cl)c(O)cc1O,> 10,> 10,
O=C([C@H]1Cc2ccccc2CN1C(=O)c1cc(Cl)c(O)cc1O)N1CCCC1,1.94,3.97,
CC(C)NC(=O)[C@H]1Cc2ccccc2CN1C(=O)c1cc(Cl)c(O)cc1O,2.49,3.08,
CCNC(=O)[C@@H]1Cc2ccccc2CN1C(=O)c1cc(Cl)c(O)cc1O,3.88,5.18,
C=CCNC(=O)[C@@H]1Cc2ccccc2CN1C(=O)c1cc(Cl)c(O)cc1O,6.74,7,
O=C([C@@H]1Cc2ccccc2CN1C(=O)c1cc(Cl)c(O)cc1O)N1CCCCC1,9.64,8.88,
O=C(NCc1ccccc1)[C@H]1Cc2ccccc2CN1C(=O)c1cc(Cl)c(O)cc1O,0.98,1.74,Activity [3]: Active; Activity [4]: Dose-dependent effect; inhibition [5]: Dose-dependent effect; inhibition [6]: Dose-dependent effect; inhibition [7]: Dose-dependent effect; inhibition [8]: Dose-dependent effect; inhibition [9]: Dose-dependent effect
C=CCNC1=C2C[C@@H](C)C[C@H](OC)[C@H](O)[C@@H](C)/C=C(\C)[C@H](OC(N)=O)[C@@H](OC)/C=C\C=C(/C)C(=O)NC(=CC1=O)C2=O [TANESPIMYCIN],0.52,0.2,
